Earlier results in PMC10855781 (International Journal of Molecular Sciences, 2024).

How the values were obtained:
[1] = system: human umbilical vein endothelial cells (HUVEC); parameters: key: 0: no cardiotoxicity; +: weak; ++: moderate; +++: strong cardiotoxicity; settings: long-term (0–72 h) cytotoxic effect, impedimetric; ref [75]
Description: Table 2 Comparative study of cytotoxic effects and cardiotoxicity elicited by selected GnRH-based anthracycline conjugates. | column: Cardiotoxicity

[2] = system: PC-3 human prostatic adenocarcinoma; parameters: method as in PMID 36834815; settings: s.c. PC-3; i.p. 10 mg Dau-content/kg every fifth day from day 9, five treatments; day 33; Dau 1 mg/kg, terminated day 26; ref [84]
Description: This 14-mer peptide (Glp-[…]NH2), first discovered in the skin of the frog Bombina bombina, is associated with the gastrin-releasing peptide (GRP) as a mammalian counterpart. The bombesin receptor family comprises neuromedin receptor B (NMB-R, or BB1), gastrin-releasing peptide receptor (GRP-R, or BB2) and bombesin receptor subtype 3 (BRS-3, or BB3). Among them, GRP-R has been the most investig ...

HT-29 tumor = settings: ref [18]
Experimental: In our group, we synthesized conjugates based on a heptapeptide (VHLGYAT) selected by Zhang et al. and tested them on HT-29 human colon adenocarcinoma. Since sequence modification may result in different oxime-linked Dau-amino acid fragments, a cathepsin B- labile spacer was incorporated to the N-terminal of the homing peptide. From the parent compound (Dau=Aoa-LRRY-VHLGYAT-NH2), the potential positions that can be substituted were selected using Ala-scan. […] Statistical analysis was performed by Mann-Whitney test. *, ** and *** mean significant at p < 0.05, p < 0.01 and p < 0.001, respectively. Adapted with permission from ref. [18]. 2019, Elsevier. TEXT PRINTED IN THE PICTURE: (a) Dau: Tumour weight (g): 16% | (a) Parent: Tumour weight (g): 35% | (a) G/F exchange: Tumour weight (g): 11% | (b) Dau: Liver weight (g): 72% | (b) Parent: Liver weight (g): 101% | (b) G/F exchange: Liver weight (g): 90% | (c) Dau: Prol ...

COc1cccc2c1C(=O)c1c(O)c3c(c(O)c1C2=O)C[C@@](O)(C(C)=O)C[C@@H]3O[C@H]1C[C@H](N)[C@H](O)[C@H](C)O1 [Dau, daunomycin]
Cardiotoxicity, HUVEC [1]: +++
tumor volume inhibition [2]: without showing a significant reduction
tumor weight reduction compared to the control group (HT-29 tumor; conjugates 10 mg/kg Dau content i.p. days 13, 16, 20, 23, 27, end day 30, Dau 1 mg/kg days 13 and 20, sacrificed day 23): 84%
decrease in liver weight vs controls (HT-29 tumor; same experiment as E56): 28%
